Patent publication US7498406B2, “Substantially cell membrane impermeable compound and use thereof” (priority 1999, dated 2009)
Where two headings read alike, the source gives them in different places.

Experiments:
[1] = tested on: BCE; experiment: Viability of cultured cells, 72 hr; type: cell-based, bovine
Description: FIG. 18. Inhibition of proliferation and reduction in viability of BCE cells by GSAO. 15,000 (part A and B) or 50,000 (part C and D) BCE cells per well were seeded into gelatinised 24-well culture plates and allowed to attach for 24 hr (part A, B and D) or 72 hr (part C). The media was then replaced with DMEM containing 5% BCS and 0 to 1 mM GSAO or GSAA and either 1 ng per mL FGF-2 (part A) or 10 ng per mL VEGF (part B). In part D, the media was replaced with DMEM containing 5% BCS and 1 ng per mL FGF-2 and either 10 μM GSAO or GSAA. In part C, the media was replaced with DMEM containing 5% BCS and 0 to 1 mM GSAO or GSAA. Cells were cultured for 72 hr in parts A, B and C or for discrete times up to 48 hr in part D and then dispersed and counted. The dotted line in parts A, B and C indicate the cell number in control wells containing DMEM and 5% BCS which represented no to limited proliferation. The dotted line in part D represents no change in cell number over the 48 hr. The data points and errors represent the mean and range of duplicate wells.
BCE (Folkman et al. 1979), BAE, BxPC-3 (ATCC, Bethesda, Md.), HT1080 (Jiang et al., 1999), 3T3 (ATCC, Bethesda, Md.) and BVSM (Hogg et al., 1997) cells were harvested and cultured as indicated. Cells (0.5 mL of 30,000 or 100,000 cells per mL) were seeded into gelatinized 24-well culture plates (Corning Costar, Corning, N.Y.) in Dulbecco's Modified Eagle's Medium (DMEM, JHR Bioscience, Lenexa, Kans.) containing 10% fetal calf serum (FCS, Intergen Comp., Purchase, N.Y.) and 1% Glutamine Pen-Strep (GPS, Irvine Scientific, Santa Ana, Va.) and allowed to attach for 24 hr in 10% CO2 at 37° C. […] Cells were cultured for 0 to 72 hr in 10% CO2 at 37° C. then dispersed in trypsin/EDTA (GibcoBRL, Granc Island, N.Y.), resuspended in Coulter balanced electrolyte solution and counted with a Z1 Coulter counter (Coulter Corp., Miami, Fla.) in all experiments there were two control wells containing DMEM with 1% GPS and either 5% BCS for BCE cells, 2% BCS for BAE and BVSM cells, or 2% FCS for BxPC-3, HT1080 and 3T3 cells. […]

[2] = Binding of GSAO to dithiol, loss of thiols in DTNB assay; conditions: for Kd: errors are 1 SD, read-out: Dissociation Constant
Description: FIG. 12. Interaction of GSAO with synthetic, peptide and protein dithiols. DMP (A) (15 μM), 6,8-thioctic acid (B) ([…]), dithiothreitol (C) (8.5 μM), TrpCysGlyProCysLys (D) (4.6 μM), TrpCysGlyHisCysLys (E) (5.5 μM) or thioredoxin (F) (4.1 μM corresponding to 20.6 μM thiols) was incubated with GSAO (0-56 μM) for 10 minutes. DTNB (950 μM) was then added and the reactions incubated for a further 10 minutes. The concentration of thiol in the reactions was determined from the absorbance of the TNB dianion at 412 nm. The solid lines represent the best non-linear least squares fit of the data to Equation 1 (A to E) or Equation 2 (F) and have been drawn using the parameter estimates in Table 1. The dotted line in part A represents a simulated titration assuming an infinite affinity of GSAO for the dithiol. GSAO bound to both synthetic, peptide and protein dithiols with dissociation constants in the range 130 nM to 1.4 μM.
A stock solution of DMP (5 μL, 50 μmol) was dissolved in DMSO (995 μL), giving a concentration of 50 mM DMP, A second dilution of the 50 mM DMP stock solution (10 μL) in pH 7.0 buffer (0.1 M HEPES, 0.3 M NaCl, 1 mM EDTA) (990 μL) gave a working solution of 500 ? M DMP. The activity of the arsenical could then be determined by the titration of varying amounts of arsenical against the DMP working solution (10 μL) in a 96-well microtitre plate, with the total volume made up to 195 μL by addition of buffer. After a 10 minute incubation at room temperature, during which time the solutions were agitated on a plate shaker, 5 μL of a 37.9 mM stock solution of DTNB (15 mg) in DMSO (1 mL) was added, and the plate incubated with shaking for another 10 minutes. The absorbance at 412 nm due to the formation of the TNB dianion was measured using a Molecular Devices Thermomax Plus (Palo Alto, Calif.) microplate reader. The extinction coefficient for the TNB dianion at pH 7.0 is 14, 150 M^−1cm^−1 at 412 nm (Riddles et al., 1983).
Binding of GSAO to dithiols was measured from loss of thiols using the DTNB assay described above. The dissociation constant, Kd, for GSAO binding to dithiols was determined by incubating increasing concentrations of GSAO, I, with a fixed dithiol concentration, [S]T, and measuring the remaining dithiol using DTNB. Note that the concentration of dithiol equals half the TNB concentration. The concentration of dithiol.GSAO complex, SI, as a function of the total GSAO concentration, [I]T, is described by Equation 1 (Hogg and Jackson, 1990), [SI]=0.5.{([S]T+x.[I]T+Kd)−(([S]T+x.[I]T+Kd)^2−4.[S]T.x.[I]T)^0.5} (1)
where x is a factor that, when multiplied together with [I]T, will yield the active concentration of GSAO. […]

Structure (SMILES) | effect on viability of BCE cells ([1]; 0 to 1 mM) | interaction with DMP in DTNB titration ([2]; DMP 15 μM, GSAO 0-50 μM, 10 minutes) | Kd ([2]; ring size 5) [nM] | Kd ([2]; ring size 6) [nM] | Kd ([2]; ring size 7) [nM] | time dependence of the decrease in viability ([1]; 10 μM, 1 ng per mL FGF-2, up to 48 hr) | IC50 ([1]; 5% BCS + 10 ng/mL VEGF, >90% confluent, 72 hr) [nM]
N[C@@H](CCC(=O)N[C@@H](CSCC(=O)Nc1ccc([As](=O)(O)O)cc1)C(=O)NCC(=O)O)C(=O)O [GSAA, 4-(N-(S-glutathionylacetyl)amino)phenylarsonic acid, reference compound] | no significant effect on viability |  |  |  |  |  | 
NC(CCC(=O)NC(CSCC(=O)Nc1ccc([As]=O)cc1)C(=O)NCC(=O)O)C(=O)O (stereo not shown) [GSAO, 4-(N-(S-glutathionylacetyl)amino)-phenylarsenoxide] |  | bound to DMP and prevented interaction of the dithiol with DTNB | 130 | 200 ± 50 | 420 | no decrease in viability after 8 hours | ~3000
